Results published in US7078540B1, “Substituted aromatic-ring compounds, process for producing the same, and use” (Takeda Pharmaceutical Company Limited, priority 1999, dated 2006).
pIC50: −log10 of the molar value.

Legend:
[1] = tested on: IL-1β production by human monocyte cell line P31/FUJ; assay: Inhibitory activity on IL-1β production in P31/FUJ cells; format: cell-based; conditions: PMA pretreated, LPS 100 ng/ml + interferon-γ 10 U/ml, overnight
Procedure: (§1) Using human monocyte cell line P31/FUJ (JCRB0091, establisher: Fujioka, obtained from the Human Science Research Resource Bank), the percent inhibition of cytokine production by the test compound was measured. The test compound was dissolved in N,N-dimethylformamide to 10 mM and diluted with RPMI-1640 medium to 0.1 mM. Furthermore, it was prepared with a medium to make a final concentration from 10 μM to 10 nM by diluting 10-fold, and added to the culture. The day before the experiment, the cells were prepared with RPMI-1640 medium supplemented with 10% fetal calf serum to a concentration of 2×10^6 cells/ml and plated to a 96-well plate by 2×10^5 cells/0.1 ml per well. The above-mentioned medium (0.1 ml) supplemented with 40 nM phorbol 12-myristate 13-acetate (PMA) was added and the mixture was cultured at 37° C. under 5% CO2/95% air overnight. The cells were washed with the above-mentioned medium to remove PMA and the prepared test compound was added, and LPS and interferon-γ were added to a final concentrations of 100 ng/ml and 10 U/ml, respectively. After culturing overnight, the concentration of TNF-α and IL-1β in the culture supernatant was measured. For quantitative determination of each cytokine, a quantitative determination kit by Amersham was used.

[2] = tested on: NO production by RAW264.7 cells; assay: Inhibitory activity on NO production in LPS/interferon-γ stimulated RAW264.7 cells; format: cell-based, mouse; conditions: LPS 5 ng/ml + interferon-γ 1 U/ml, overnight, nitrite in culture supernatant
Procedure: Using mouse macrophage cell line, RAW264.7 as iNOS inducible cells, percent inhibition of NO production by the test compound was measured. The test compound was dissolved in N,N-dimethylformamide to 10 mM and diluted with RPMI-1640 medium to 0.1 mM. Furthermore, it was prepared with a medium to make a final concentration from 10 μM to 10 nM by diluting 10-fold, and added to the culture. The day before the experiment, the cells were prepared with RPMI-1640 medium supplemented with heat-inactivated 10% fetal calf serum to a concentration of 5×10^5 cells/ml and plated to a 96-well plate by 1×10^5 cells/0.2 ml per well. After culturing at 37° C. under 5% CO2/95% air overnight, the medium was changed to RPMI-1640 medium supplemented with heat-inactivated 1% fetal calf serum. Thereto was added the prepared test compound, and LPS and interferon-γ were added to a final concentrations of 5 ng/ml and 1 U/ml, respectively. After incubation overnight, the concentration of nitrite ion (stable metabolite of NO) in the culture supernatant was measured and used as an index of NO production. The nitrite concentration was quantitatively measured by adding 20 μg/ml 2,3-diaminonaphtalene (DAN) by 25 μl to the culture supernatant (50 μl), incubating at room temperature for 10 min, adding 0.5N NaOH (25 μl) and measuring the fluorescence at 450 nm (excitation wavelength 365 nm).

[3] = tested on: TNF-α production by human monocyte cell line P31/FUJ; assay: Inhibitory activity on TNF-α production in P31/FUJ cells; format: cell-based; conditions: PMA pretreated, LPS 100 ng/ml + interferon-γ 10 U/ml, overnight
Procedure: as §1

blood NOx concentration = assay: Effect against increase in blood nitrogen oxide concentration in LPS-treated mice; format: in vivo, mouse; conditions: female BALB/c mice, 10 mg/kg orally 1 h before LPS 10 mg/kg i.p., sera at 6 h after LPS, relative to control group
Description: When a biological defense response against infection and the like, immunopathy and the like causes NO production in the body, it is quickly metabolized into nitrous acid and nitric acid, whereby blood nitrogen oxide concentration (NOx) increases. Using test animals, the effect of the test compound against increase in blood NOx concentration was examined.
Female BALB/c mice (7-week-old) were divided into 6–8 mice per group. For the test compound group, the test compound was suspended in 0.5% aqueous methylcellulose solution and 10 mg/kg thereof was orally administered. For the control group, a solvent was similarly administered. One hour later, LPS (10 mg/kg) was intraperitoneally administered to the test compound group and the control group. At 6 h after LPS administration, blood was drawn and nitrate ion+nitrite ion concentration in sera was measured. The nitrate ion was converted to nitrous acid ion with nitrate reductase and quantitatively measured as a total nitrite ion concentration by fluorescence method using the aforementioned DAN.

[4] = Mus musculus, RAW264.7, RAW264.7 cells

SMILES | pIC50 ([2]; RAW264.7 cells) | pIC50 [2, 4] | further results
CCOC(=O)C1=CCCCC1S(=O)(=O)Cc1ccccc1 (stereo not shown) [Compound 1, ethyl 6-(benzylsulfonyl)-1-cyclohexene-1-carboxylate] | – | 6.62 | –
CCOC(=O)C1=CCCCC1S(=O)(=O)Cc1ccc(F)cc1Cl (stereo not drawn) [Compound 5, ethyl (−)-6-[(2-chloro-4-fluorobenzyl)sulfonyl]-1-cyclohexene-1-carboxylate] | 6.00 | – | –
CCOC(=O)C1=CCCCC1S(=O)(=O)Cc1ccc(F)cc1Cl (stereo not shown) [Compound 4, ethyl 6-[(2-chloro-4-fluorobenzyl)-sulfonyl]-1-cyclohexene-1-carboxylate] | 7.54 | – | pIC50 [1]: 6.24; pIC50 ([3]; Homo sapiens, P31-FUJ): 6.70; Blood NOx inhibition (%) (blood NOx concentration): 62%
CCOC(=O)C1=CCCCC1S(=O)(=O)Cc1ccc(OC)cc1 (stereo not shown) [Compound 2, ethyl 6-[(4-methoxybenzyl)sulfonyl]-1-cyclohexene-1-carboxylate] | – | 5.49 | –
CCOC(=O)C1=CCCCC1S(=O)(=O)Cc1ccc(F)cc1F (stereo not shown) [Compound 3, ethyl 6-[(2,4-difluorobenzyl)sulfonyl]-1-cyclohexene-1-carboxylate] | – | 7.33 | –

Further lines, with some results ahead:

pIC50 ([2]; RAW264.7 cells) | pIC50 [2, 4] | SMILES | further results
8.03 | – | CCOC(=O)C1=CCCCC1S(=O)(=O)Cc1ccc(F)cc1Cl (stereo not drawn) [Compound 6, ethyl (+)-6-[(2-chloro-4-fluorobenzyl)sulfonyl]-1-cyclohexene-1-carboxylate] | pIC50 [1]: 6.64; pIC50 [3]: 6.82
– | 8.51 | CCOC(=O)C1=CCOCC1S(=O)(=O)Nc1ccc(F)cc1Cl (stereo not shown) [Compound 8, ethyl 3-[(2-chloro-4-fluorophenyl)sulfamoyl]-3,6-dihydro-2H-pyran-4-carboxylate] | pIC50 ([1]; Homo sapiens, P31-FUJ): 7.96; pIC50 ([3]; Homo sapiens, P31-FUJ): 7.70; Blood NOx inhibition (%) (blood NOx concentration): 80%
– | 7.74 | CCOC(=O)C1=CCOCC1S(=O)(=O)Nc1ccc(F)cc1F (stereo not shown) [Compound 7, ethyl 3-[(2,4-difluorophenyl)-sulfamoyl]-3,6-dihydro-2H-pyran-4-carboxylate] | –
